Data set [1] deals with Trypanosoma cruzi. The data set is described as follows: microbe, parasite or virus in culture. Conditions: MHOM/MX/1994/Ninoa, 48 h. The format is functional, organism-based.
Description: Trypanocidal activity against Trypanosoma cruzi MHOM/MX/1994/Ninoa assessed as inhibition of parasite growth measured after 48 hrs by MTT assay
The subject of data set [2] is Trypanosoma cruzi. Put plainly: microbe, parasite or virus in culture. Conditions: ITRI/MX/2018/TH, 48 h. The data set is classed as functional, organism-based.
Description: Trypanocidal activity against Trypanosoma cruzi ITRI/MX/2018/TH assessed as inhibition of parasite growth measured after 48 hrs by MTT assay
Data set [3] is described as follows: Cytotoxicity against mouse J774.2 cells assessed as reduction in cell viability measured after 48 hrs by resazurin dye based assay. A general note: Alamar Blue is a resazurin reagent that responds to reducing activity.
Data set [4] relates to Trypanosoma cruzi. The data set is described as follows: microbe, parasite or virus in culture. The format is functional, organism-based. The note with it: MHOM/MX/1994/Ninoa, 24 h.
Description: Antitrypanosomal activity against Trypanosoma cruzi MHOM/MX/1994/Ninoa infected in animal assessed as reduction in viable parasite in blood measured after 24 hrs by neubauer chamber assay
Data set [5] is described as follows: in vitro. Conditions: mouse.
Description: Selectivity index, ratio of CC50 for mouse J774.2 cells to IC50 for Trypanosoma cruzi MHOM/MX/1994/Ninoa
Data set [6] in a line: in vitro. The note with it: mouse. The source holds these as a separate data set.
Description: Selectivity index, ratio of CC50 for mouse J774.2 cells to IC50 for Trypanosoma cruzi ITRI/MX/2018/TH

Consider ten compounds from ChEMBL document CHEMBL5032525, “In vitro, ex vivo and in vivo short-term screening of DHEA nitrate derivatives activity over Trypanosoma cruzi Ninoa and TH strains from Oaxaca State, México” (Bioorg Med Chem, 2021).

pIC50: −log10 of the molar value.

Turning to `C[C@]12CC[C@H](O[N+](=O)[O-])CC1=CC[C@@H]1[C@@H]2CC[C@]2(C)C(=O)CC[C@@H]12`, the pIC50 (usually the negative decadic logarithm of the IC50, by convention in mol/L) in the data set with Trypanosoma cruzi [1] is 4.48; in the data set on Trypanosoma cruzi [2], 6.70; in the data set with Trypanosoma cruzi [4], under 3.52. Besides, the CC50 (in general, the concentration that lowers cell viability or growth by half) at 48 h in data set [3] (J774.2 cells) worked out at 0.2 µM. In addition, the selectivity ratio in “in vitro [5]” (J774.2 cells) stood at 0.01; in “in vitro [6]” (J774.2 cells) it was 1.
`CC1CS(=O)(=O)CCN1/N=C/c1ccc([N+](=O)[O-])o1` (stereo unspecified) [NIFURTIMOX]: the figures for the pIC50 with Trypanosoma cruzi [1] and in the data set with Trypanosoma cruzi [2] were 5.15 and 4.71, respectively.
Take `C[C@]12CC[C@H]3[C@@H](CC=C4C[C@@H](O)CC[C@@]43C)[C@@H]1CC[C@@H]2O` [ANDROSTENEDIOL]: the pIC50 was 5.65 in the data set on Trypanosoma cruzi [1], 4.43 in the data set with Trypanosoma cruzi [2] and under 3.52 with Trypanosoma cruzi [4]. Moreover, in data set [3] (j774.2), the CC50 at 48 h was determined as 278 µM. Also, the values for the selectivity ratio in “in vitro [5]” and in the data set “in vitro [6]” were 125 and 7.5, respectively.
The compound `O=C(Cn1ccnc1[N+](=O)[O-])NCc1ccccc1` [BENZNIDAZOLE] gave a pIC50 in the data set with Trypanosoma cruzi [2] of 4.41.
On to `C#C[C@]1(O)CC[C@H]2[C@@H]3CC=C4C[C@@H](O[N+](=O)[O-])CC[C@]4(CO[N+](=O)[O-])[C@H]3CC[C@@]21C`, for which the results for the pIC50 in the data set on Trypanosoma cruzi [1], in the data set with Trypanosoma cruzi [2] and in the data set with Trypanosoma cruzi [4] were 5.55, 3.49 and under 3.52, respectively. For the same compound, in data set [3] (J774.2 cells), the CC50 at 48 h is 39.8 µM. Also, the values for the selectivity ratio in “in vitro [5]” (J774.2 cells) and in the data set “in vitro [6]” (J774.2 cells) were 14.2 and 0.13, respectively.
`C[C@]12CC[C@H]3[C@@H](CC=C4C[C@@H](O[N+](=O)[O-])CC[C@@]43C)[C@@H]1CC[C@@H]2O[N+](=O)[O-]`: the pIC50 with Trypanosoma cruzi [1] was 3.46; in the data set on Trypanosoma cruzi [2] it was 4.11; with Trypanosoma cruzi [4], under 3.52. In data set [3] (J774.2 cells), the CC50 at 48 h came out at 151 µM. In addition, the values for the selectivity ratio in the data set “in vitro [5]” (J774.2 cells) and in “in vitro [6]” (J774.2 cells) were 0.44 and 1.89, respectively.
On to `C[C@]12CC[C@H](O)CC1=CC[C@@H]1[C@@H]2CC[C@]2(C)C(=O)CC[C@@H]12` [PRASTERONE], for which the pIC50 in the data set on Trypanosoma cruzi [1] is 4.21; in the data set on Trypanosoma cruzi [2], 4.86; in the data set with Trypanosoma cruzi [4], under 3.52. Besides, the CC50 at 48 h in data set [3] (J774.2 cells) came out at 198 µM. Moreover, the selectivity ratio is 3.19 in “in vitro [5]” (J774.2 cells) and 14.3 in “in vitro [6]” (J774.2 cells).
Consider `C[C@]12CC[C@H]3[C@@H](CC=C4C[C@@H](O)CC[C@@]43CO)[C@@H]1CCC2=O`, for which the pIC50 with Trypanosoma cruzi [1] was 4.44; in the data set on Trypanosoma cruzi [2], 3.32; in the data set on Trypanosoma cruzi [4] it was under 3.52. Further, the CC50 at 48 h in data set [3] (J774.2 cells) stood at 75.4 µM. The selectivity ratio was found to be 2.08 in the data set “in vitro [5]” (J774.2 cells) and 0.15 in the data set “in vitro [6]” (J774.2 cells).
In the case of `C[C@]12CC[C@H]3[C@@H](CC=C4C[C@@H](O[N+](=O)[O-])CC[C@@]43CO[N+](=O)[O-])[C@@H]1CCC2=O`, the pIC50 with Trypanosoma cruzi [1] was 4.32; with Trypanosoma cruzi [2], 3.37; in the data set with Trypanosoma cruzi [4], 3.53. Moreover, the CC50 at 48 h in data set [3] (J774.2 cells) came to 130 µM. Also, the selectivity ratio was 2.68 in the data set “in vitro [5]” (J774.2 cells) and 0.3 in “in vitro [6]” (J774.2 cells).
Regarding `C#C[C@]1(O[N+](=O)[O-])CC[C@H]2[C@@H]3CC=C4C[C@@H](O[N+](=O)[O-])CC[C@]4(CO[N+](=O)[O-])[C@H]3CC[C@@]21C`, the values for the pIC50 with Trypanosoma cruzi [1], in the data set on Trypanosoma cruzi [2] and in the data set with Trypanosoma cruzi [4] were 5.67, 3.49 and under 3.52, respectively. Further, in data set [3] (J774.2 cells), the CC50 at 48 h worked out at 22.3 µM. Further, the results for the selectivity ratio in the data set “in vitro [5]” (J774.2 cells) and in “in vitro [6]” (J774.2 cells) were 11 and 0.07, respectively.
